Source: patent US20160121003A1, “METHODS FOR DIAGNOSING AND […] OF LEWY BODY DEMENTIA BY ASSESSING DOPAMINE T[…]” (Alseres Pharmaceuticals, Inc., priority 2007, published 2016)

Columns and labels:
[1] = target: T1, dopamine transporter (Homo sapiens, UniProt Q01959); test: SPECT imaging of striatal binding potential, Lewy Body Dementia subjects versus controls; format: in vivo; design: from tissue; host or cells: human brain striatum in vivo (Lewy Body Dementia subjects and controls)
[2] = target: T1, dopamine transporter; test: Dynamic SPECT time-activity study in Lewy Body Dementia and control subjects; format: in vivo; design: from tissue; host or cells: human brain striatum in vivo (Lewy Body Dementia subjects and controls)
Excerpt: The following example summarizes single photon emission computed tomographic (SPECT) image acquisition, analysis methods for Lewy Body Dementia research participants and healthy controls participating in an ^123I-altropane SPECT imaging study. The experiment is an open label study evaluating time-activity curves and striatal dopamine transporter occupancy over the first hour post bolus injection of ^123I-altropane using temporally well-resolved dynamic SPECT in Lewy Body Dementia subjects and similarly aged healthy control subjects. In addition, for the Lewy Body Dementia subjects, a second injection and scan is performed on each subject on a separate test day to evaluate the test/retest reproducibility data for both visual and quantitative analyses.
Fifteen idiopathic Lewy Body Dementia subjects are recruited through local advertising and word-of-mouth for enrollment in the study. All fifteen subjects complete two separate injection and SPECT scan sessions with approximately […] (8 mCi) of ^123I-altropane. Subjects undergo assessment by a neurology specialist.
Twelve healthy controls subjects are recruited for participation in a single scan session with ^123I-altropane using the identical SPECT image acquisition protocol as the Lewy Body Dementia subjects. Healthy subjects are evaluated by a neurology specialist to confirm the absence of neurologic illness.
SPECT scans are acquired for 60 min following the intravenous injection with […] (8.0 mCi) of ^123I altropane. A series of dynamic SPECT scans are obtained as five scans at 6 minutes per acquisition followed by three scans at 10 minutes per acquisition. The subject remains in the camera for the duration of the acquisition. Each SPECT study is acquired on a Philips PRISM 3000XP triple-headed SPECT camera (Cleveland, Ohio, USA) fitted with fan-beam collimators. Each head rotates 360 degrees, sampling every 3 degrees for a total of 120 raw projection images per head. Projection data are collected in a 128×128 matrix within a symmetric energy window centered at 159 kEv (+/−10%).
Data are re-constructed using filtered back projection and a simple ramp filter followed by a post hoc (3-D) standardized low pass filter. Attenuation correction is performed applying a Chang 0 correction and a mu of 0.11 cm^−1 using a standard or custom software. Regions of interest (ROIs) are placed in the 3-head data scans with individual ROI sampling of the left and right caudate and putamen and an occipital background region. […] The mean striatal SBR scores are calculated as the mean of the left and right caudate and putamen SBR scores. […]
The time-activity data for mean striatal count densities and occipital background for each of the 8 images acquired in the 60 minutes post injection sampling period are plotted to permit visual interrogation of the uptake and washout characteristics of ^123I-altropane in Lew Body Dementia and controls. […] The peak SBR is assessed for each subject for data acquired using 1, 2, and all 3 heads of imaging data. […]

[3] = Safety and tolerability of imaging agent in patients; format: in vivo, human
[4] = target: T2, dopamine transporter (Macaca fascicularis, UniProt Q9GJT6); conditions: monkeys, in vivo and in vitro; density within range reported for the dopamine transporter; cited from earlier work
T2 construct: host or cells: monkey striatum

[5] = target: T1, dopamine transporter; conditions: cited from earlier work
[6] = target: T1, dopamine transporter; conditions: in vitro; cited from earlier work

T1 sequence (Q01959 whole entry): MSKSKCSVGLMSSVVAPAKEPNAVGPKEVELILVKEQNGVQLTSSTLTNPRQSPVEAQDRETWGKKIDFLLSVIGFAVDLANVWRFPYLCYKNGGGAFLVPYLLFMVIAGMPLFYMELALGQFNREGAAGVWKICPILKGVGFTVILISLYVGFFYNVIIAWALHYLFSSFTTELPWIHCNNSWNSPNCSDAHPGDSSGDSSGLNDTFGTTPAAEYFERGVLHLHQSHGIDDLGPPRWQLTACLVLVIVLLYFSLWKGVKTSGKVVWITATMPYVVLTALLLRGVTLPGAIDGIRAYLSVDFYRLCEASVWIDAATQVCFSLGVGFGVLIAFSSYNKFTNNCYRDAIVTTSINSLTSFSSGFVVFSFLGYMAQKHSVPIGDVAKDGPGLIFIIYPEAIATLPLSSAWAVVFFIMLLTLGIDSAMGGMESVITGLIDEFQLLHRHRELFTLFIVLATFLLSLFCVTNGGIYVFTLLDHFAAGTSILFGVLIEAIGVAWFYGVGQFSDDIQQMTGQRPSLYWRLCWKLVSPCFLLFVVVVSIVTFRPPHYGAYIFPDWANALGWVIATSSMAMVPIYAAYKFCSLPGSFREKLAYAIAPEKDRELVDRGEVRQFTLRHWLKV
T2 sequence (Q9GJT6 whole entry): as the sequence (Q01959 whole entry) above, with V24M, I137V, P194S, S198G, D200N, S201G, S202P counted along it

SMILES | striatal binding potential versus expected levels for age matched normal individuals ([1]; Example 1, six Lewy Body Dementia subjects, i.v., SPECT) | uptake in striatum, Lewy Body Dementia subjects versus control adults ([1]; Example 3) | binding potential, Lewy Body Dementia group versus control group ([1]; Example 3, 8 LBD and 16 control adults, one-tailed t-test) | test-retest reproducibility of total striatal binding ([2]; 15 LBD subjects, about 30 minutes commencing 15 minutes after injection) | time post injection by which washout rates from striatum and occipital background are similar (stable striatal binding ratio) ([2]; bolus injection) [min] | time of peak striatal count densities post injection ([2]; bolus injection, controls and Lewy Body Dementia subjects) [min] | time of peak SBR post injection ([2]; one and two imaging head reconstructions) [min] | safety and tolerability [3] | regional binding in brain [4] | selectivity for dopamine transporter compared to serotonin transporter [5] | elimination from the brain ([2]; most subjects) | binding site on the dopamine transporter [6]
COC(=O)[C@H]1[C@@H](c2ccc(F)cc2)C[C@@H]2CC[C@H]1N2C/C=C/[123I] [^123I-Altropane, E-2β-carbomethoxy-3β-(4-fluorophenyl)-N-1(1-iodoprop-1-en-3) nortropane] | reduced binding potential | lower | significantly lesser binding potential | demonstrates reproducibility | 20 to 30 | 10 | ≥ 15 | safe and well tolerated | – | – | – | –
COC(=O)C1C(c2ccc(F)cc2)CC2CCC1N2C/C=C/I (stereo not drawn) [Altropane, 2β-carbomethoxy-3β-(4′-flurophenyl)-N-(3-iodo-E-allyl) nortropane] | – | – | – | – | – | – | – | – | preferentially binds to dopamine rich areas of the striatum | high selectivity | rapidly eliminate | binds to a specific high-affinity site
